Several values for one entry are separate records, joined by “and”; a condition that tells them apart may be missing. Identical values can stand only once. ± gives the expanded uncertainty stated by the source.
Conditions: for vapor or sublimation pressure: Closed cell (Static) method

FC(F)(F)/C=C/Cl [(E)-1-chloro-3,3,3-trifluoroprop-1-ene]
Conditions	mass density [kg/m3]	speed of sound
335.01 K, 7985.8 kPa, Liquid	1199.99 ± 0.27	–
335.01 K, 11894 kPa, Liquid	1213.83 ± 0.28	–
335.01 K, 14112 kPa, Liquid	1221.09 ± 0.3	–
339.43 K, 353.83 kPa, Gas	–	140.91 ± 0.027 m/s
339.44 K, 145.11 kPa, Gas	–	148.28 ± 0.026 m/s
339.44 K, 267.82 kPa, Gas	–	144.07 ± 0.027 m/s
339.44 K, 267.83 kPa, Gas	–	144.07 ± 0.027 m/s
339.44 K, 267.89 kPa, Gas	–	144.07 ± 0.027 m/s
339.44 K, 353.63 kPa, Gas	–	140.92 ± 0.024 m/s
339.44 K, 353.76 kPa, Gas	–	140.91 ± 0.027 m/s
339.45 K, 144.98 kPa, Gas	–	148.29 ± 0.026 m/s
339.45 K, 145.24 kPa, Gas	–	148.28 ± 0.026 m/s
339.45 K, 267.8 kPa, Gas	–	144.08 ± 0.027 m/s
339.45 K, 267.82 kPa, Gas	–	144.08 ± 0.027 m/s
339.47 K, 199.9 kPa, Gas	–	146.45 ± 0.027 m/s
339.47 K, 268.41 kPa, Gas	–	144.06 ± 0.028 m/s
339.47 K, 321.82 kPa, Gas	–	142.12 ± 0.027 m/s
339.47 K, 447.53 kPa, Gas	–	137.13 ± 0.028 m/s
339.48 K, 199.88 kPa, Gas	–	146.45 ± 0.026 m/s
339.48 K, 268.39 kPa, Gas	–	144.06 ± 0.028 m/s
339.48 K, 268.43 kPa, Gas	–	144.06 ± 0.027 m/s
339.48 K, 322.03 kPa, Gas	–	142.12 ± 0.027 m/s
339.48 K, 374.34 kPa, Gas	–	140.12 ± 0.028 m/s
339.48 K, 447.52 kPa, Gas	–	137.13 ± 0.028 m/s
339.48 K, 447.57 kPa, Gas	–	137.13 ± 0.025 m/s
339.49 K, 85.51 kPa, Gas	–	150.21 ± 0.026 m/s
339.49 K, 85.52 kPa, Gas	–	150.22 ± 0.029 m/s
339.49 K, 322.01 kPa, Gas	–	142.12 ± 0.027 m/s
340 K, 3674.5 kPa, Liquid	1169.48 ± 0.27	–
345.01 K, 6402.5 kPa, Liquid	1168.7 ± 0.29	–
349.98 K, 366.9 kPa, Gas	17.985 ± 0.017	–
350 K, 9119.8 kPa, Liquid	1167.95 ± 0.29	–
355.01 K, 990.8 kPa, Liquid	1111.28 ± 0.28	–
355.01 K, 2028.5 kPa, Liquid	1117.99 ± 0.28	–
355.01 K, 3980.1 kPa, Liquid	1129.59 ± 0.28	–
355.01 K, 6026.4 kPa, Liquid	1140.59 ± 0.28	–
355.01 K, 8135 kPa, Liquid	1150.94 ± 0.28	–
355.01 K, 9972.9 kPa, Liquid	1159.29 ± 0.29	–
355.01 K, 11833 kPa, Liquid	1167.22 ± 0.29	–
359.44 K, 307.1 kPa, Gas	–	148.62 ± 0.027 m/s
359.44 K, 400.17 kPa, Gas	–	145.8 ± 0.027 m/s
359.44 K, 400.23 kPa, Gas	–	145.8 ± 0.027 m/s
359.44 K, 500.35 kPa, Gas	–	142.58 ± 0.028 m/s
359.44 K, 596.92 kPa, Gas	–	139.26 ± 0.026 m/s
359.45 K, 307.02 kPa, Gas	–	148.63 ± 0.027 m/s
359.45 K, 307.4 kPa, Gas	–	148.62 ± 0.027 m/s
359.45 K, 400.08 kPa, Gas	–	145.81 ± 0.027 m/s
359.45 K, 500.35 kPa, Gas	–	142.58 ± 0.028 m/s and 142.58 ± 0.027 m/s
359.45 K, 596.94 kPa, Gas	–	139.26 ± 0.029 m/s
359.45 K, 596.95 kPa, Gas	–	139.26 ± 0.029 m/s
359.98 K, 499.3 kPa, Gas	24.386 ± 0.017	–
360 K, 387.4 kPa, Gas	18.379 ± 0.017	–
360 K, 916.6 kPa, Fluid (supercritical or subcritical phases)	1094.63 ± 0.23	–
360 K, 3249 kPa, Liquid	1110.57 ± 0.28	–
364 K, 2629 kPa, Fluid (supercritical or subcritical phases)	1094.08 ± 0.23	–
365.01 K, 5510.3 kPa, Liquid	1109.87 ± 0.28	–
368 K, 1297.9 kPa, Fluid (supercritical or subcritical phases)	1070.52 ± 0.23	–
368 K, 4345.4 kPa, Fluid (supercritical or subcritical phases)	1093.56 ± 0.23	–
370 K, 523.6 kPa, Gas	24.719 ± 0.017	–
370.01 K, 524 kPa, Gas	24.736 ± 0.017	–
370.01 K, 7766.7 kPa, Liquid	1109.2 ± 0.27	–
370.02 K, 407.6 kPa, Gas	18.73 ± 0.016	–
372 K, 2880.6 kPa, Fluid (supercritical or subcritical phases)	1070 ± 0.23	–
375.01 K, 2017.2 kPa, Liquid	1052.12 ± 0.26	–
375.01 K, 4033.7 kPa, Liquid	1069.29 ± 0.27	–
375.01 K, 5918 kPa, Liquid	1083.16 ± 0.27	–
375.01 K, 7957.7 kPa, Liquid	1096.46 ± 0.27	–
375.01 K, 10021 kPa, Liquid	1108.53 ± 0.27	–
376 K, 1522.5 kPa, Fluid (supercritical or subcritical phases)	1043.77 ± 0.27	–
376 K, 4464.2 kPa, Fluid (supercritical or subcritical phases)	1069.49 ± 0.23	–
379.77 K, 81.05 kPa, Gas	–	159.47 ± 0.024 m/s and 159.47 ± 0.025 m/s
379.77 K, 81.06 kPa, Gas	–	159.48 ± 0.024 m/s
379.77 K, 201.41 kPa, Gas	–	156.72 ± 0.026 m/s

Liquid
Conditions	vapor or sublimation pressure [kPa]
340.01 K	470.7 ± 0.8
350.02 K	608.7 ± 1
360.02 K	775 ± 1.2
370.03 K	973.2 ± 1.5
